Source: PMC12193833, “Toxicity Assessment and Antifungal Potential of Copper(II) and Silver(I) Complexes with 1,10-Phenanthroline-5,6-dione Against Drug-Resistant Clinical Isolates of Cryptococcus gattii and Cryptococcus neoformans” (Journal of Fungi, 2025)
In brackets after ≈: the same amount, converted by molar mass.

How the values were obtained:
G. mellonella larvae = system: G. mellonella larvae; design: method as in PMID 32265890; settings: 750 µg/mL; cited from earlier work
[1] = system: C. gattii clinical isolates; test: Susceptibility to clinically available antifungals, CLSI M27-A3 microdilution; assay type: cell-based; settings: Cryptococcus gattii
Description: (§1) Six clinical isolates belonging to the Cryptococcus genus were obtained from patients who attended the Instituto Nacional de Infectologia Evandro Chagas (INI), Fundação Oswaldo Cruz (FIOCRUZ), and were kindly provided by Dr. Rodrigo Almeida-Paes (INI-FIOCRUZ). To comply with ethical standards and institutional agreements between UFRJ and FIOCRUZ, patient data were not disclosed. In this sense, the C. neoformans isolates were designated CFP00213 (213), CFP00223 (223), and CFP00350 (350), while the C. gattii isolates were labeled CFP00023 (23), CFP00025 (25), and CFP00027 (27). Before each experiment, an aliquot of the culture was transferred from Sabouraud dextrose agar (2% glucose, 1% peptone, and 0.5% yeast extract) to RPMI 1640 medium (Sigma-Aldrich, St. Louis, MO, USA), pH 7.2, buffered with 0.165 M MOPS (Sigma-Aldrich, St. Louis, MO, USA). RPMI medium induces the expression of capsular polysaccharides, the primary virulence factor of Cryptococcus cells. The cultures were incubated at 37 °C for 48 h to promote cell proliferation, stimulate metabolic activation, and enhance capsular development. Yeast cell counts were determined using a Neubauer chamber.
(§2) The susceptibility profile was evaluated using the microdilution method in RPMI 1640 medium buffered with 0.165 M MOPS, following the M27-A3 protocol for yeasts established by the Clinical and Laboratory Standards Institute (CLSI). […] Each fungal isolate was classified as either wild-type or non-wild-type for each antifungal based on the epidemiological cutoff values provided in CLSI M59 ED3, 2020 [32].

[2] = system: C. neoformans clinical isolates; test: as above; assay type: cell-based; settings: Cryptococcus neoformans
Description: as §1, §2

[3] = system: six clinical Cryptococcus isolates; test: Susceptibility to clinically available antifungals, all six isolates; assay type: cell-based, Cryptococcus neoformans and Cryptococcus gattii; settings: all other Cryptococcus isolates (except C. neoformans isolate printed as 233)
Description: as §1, §2

[4] = system: C. neoformans clinical isolates; test: MIC/MFC of test compounds, microdilution; assay type: cell-based, Cryptococcus neoformans; settings: for MIC: read-out: MIC
Description: as §1
(§3) Following MIC determination, the MFC was assessed by inoculating 10 µL from wells showing no visible fungal growth onto Sabouraud dextrose agar. […] To further support and strengthen the evidence of the anti-Cryptococcus activity of the Cu-phendione and Ag-phendione complexes, we additionally performed MIC/MFC assays using well-characterized standard reference strains: ATCC 28957, H99, T1444 (all C. neoformans), and R265 (C. gattii).

[5] = system: C. gattii clinical isolates; test: MIC/MFC of test compounds, microdilution; assay type: cell-based, Cryptococcus gattii; settings: for MIC: read-out: MIC
Description: as §1, §3

[6] = system: Galleria mellonella larvae; test: In vivo acute toxicity, single treatment; settings: single inoculation
Method: In this set of experiments, G. mellonella larvae weighing approximately 0.2–0.3 g and displaying clear, uniform coloration were used. The larvae were inoculated (10 µL/larva) using an insulin syringe (BD Ultra-Fine, Franklin Lakes, NJ, USA) at the last left proleg. […] We also assessed their coloration through visual analysis as an indicator of stress levels. Throughout the experiments, the larvae were maintained at 37 °C [19, 42]. Two distinct treatment protocols were designed to evaluate the effects of the test compounds on larval survivability, as detailed below.
For the acute toxicity analysis, the test compounds were administered to the larvae in a single inoculation at concentrations ranging from 1000 to 125 μM. Each group consisted of 10 larvae, while the control group received only sterile PBS with 4% DMSO. […] The SI was calculated using the following equation: SI = G. mellonella CC50/Cryptococcus MIC.

G. mellonella = settings: cited from earlier work
[7] = 24 h, C. gattii isolate 23, 37 °C
[8] = 24 h, C. gattii isolate 25, 37 °C
[9] = 24 h, C. gattii isolate 27, 37 °C
[10] = C. gattii isolate 23, value in brackets
[11] = C. gattii isolate 25, value in brackets
[12] = C. gattii isolate 27, value in brackets
[13] = 24 h, C. neoformans isolate 213, 37 °C
[14] = 24 h, C. neoformans isolate 223, 37 °C
[15] = 24 h, C. neoformans isolate 350, 37 °C
[16] = C. neoformans isolate 213, value in brackets
[17] = C. neoformans isolate 223, value in brackets
[18] = C. neoformans isolate 350, value in brackets
[19] = all C. neoformans clinical isolates
[20] = all C. gattii clinical isolates
[21] = Cryptococcus neoformans, all C. neoformans clinical isolates
[22] = Cryptococcus gattii, all C. gattii clinical isolates

Molecule: O.O.O.O.O.O.O.O.O.O.O.O.O.O.O.O.O=C([O-])c1cccc(C(=O)[O-])c1.O=C([O-])c1cccc(C(=O)[O-])c1.[Mn+2].[Mn+2].c1cnc2c(c1)ccc1cccnc12.c1cnc2c(c1)ccc1cccnc12.c1cnc2c(c1)ccc1cccnc12.c1cnc2c(c1)ccc1cccnc12.c1cnc2c(c1)ccc1cccnc12 [{[Mn(1,10-phenanthroline)2(H2O)2]}2(isophthalic acid)2(1,10-phenanthroline)·12H2O]
- Mortality rate in G. mellonella larvae (G. mellonella larvae): 13%

Molecule: C[C@@H]1[C@H](O)[C@@H](C)/C=C/C=C/C=C/C=C/C=C/C=C/C=C/[C@H](O[C@@H]2O[C@H](C)[C@@H](O)[C@H](N)[C@@H]2O)C[C@@H]2O[C@](O)(C[C@@H](O)C[C@@H](O)[C@H](O)CC[C@@H](O)C[C@@H](O)CC(=O)O[C@H]1C)C[C@H](O)[C@H]2C(=O)O [Amphotericin B, amphotericin B]
- MIC [1, 7]: 0.03 µg/mL
- MIC [1, 8]: 0.03 µg/mL
- MIC [1, 9]: 0.03 µg/mL
- MIC [1, 10]: 0.03 µM
- MIC [1, 11]: 0.03 µM
- MIC [1, 12]: 0.03 µM
- MIC [2, 13]: 0.03 µg/mL
- MIC [2, 14]: > 16 µg/mL
- MIC [2, 15]: 0.03 µg/mL
- MIC [2, 16]: 0.03 µM
- MIC [2, 17]: > 17.3 µM
- MIC [2, 18]: 0.03 µM
- MIC [3]: 0.03 µg/mL (≈ 0.0325 µM)

Molecule: [Ag+].[O-][Cl+3]([O-])([O-])[O-] [AgClO4, silver perchlorate]
- MFC ([4]; C. neoformans isolate 213): > 100 µM
- MIC ([4]; C. neoformans isolate 213): 1.56 µM
- MFC ([4]; C. neoformans isolate 223): > 100 µM
- MIC ([4]; C. neoformans isolate 223): 1.56 µM
- MFC ([4]; C. neoformans isolate 350): > 100 µM
- MIC ([4]; C. neoformans isolate 350): 1.56 µM
- MFC [4, 19]: > 100 µM
- MIC [4, 19]: 1.56 µM
- MFC ([5]; C. gattii isolate 23): 12.5 µM
- MIC ([5]; C. gattii isolate 23): 1.56 µM
- MFC ([5]; C. gattii isolate 25): 12.5 µM
- MIC ([5]; C. gattii isolate 25): 1.56 µM
- MFC ([5]; C. gattii isolate 27): 12.5 µM
- MIC ([5]; C. gattii isolate 27): 1.56 µM
- MFC [5, 20]: 12.5 µM
- MIC [5, 20]: 1.56 µM
- Larval mortality ([6]; 250 µM): 20%
- Larval mortality ([6]; 500 µM): 20%
- Larval mortality ([6]; 1000 µM): 50%

Molecule: O=C1C(=O)c2cccnc2-c2ncccc21 [Phendione, 1,10-Phenanthroline-5,6-dione]
- MIC ([4]; C. neoformans isolate 213): 12.5 µM (≈ 2.63 µg/mL)
- MIC ([4]; C. neoformans isolate 223): 12.5 µM (≈ 2.63 µg/mL)
- MIC ([4]; C. neoformans isolate 350): 12.5 µM (≈ 2.63 µg/mL)
- MFC ([4]; Cryptococcus neoformans, C. neoformans isolate 213): > 100 µM
- MFC ([4]; Cryptococcus neoformans, C. neoformans isolate 223): 100 µM (≈ 21 µg/mL)
- MFC ([4]; Cryptococcus neoformans, C. neoformans isolate 350): 100 µM (≈ 21 µg/mL)
- MFC [4, 21]: ≥ 100 µM
- MIC [4, 21]: 12.5 µM (≈ 2.63 µg/mL)
- MIC ([5]; C. gattii isolate 23): 12.5 µM (≈ 2.63 µg/mL)
- MIC ([5]; C. gattii isolate 25): 12.5 µM (≈ 2.63 µg/mL)
- MIC ([5]; C. gattii isolate 27): 12.5 µM (≈ 2.63 µg/mL)
- MFC ([5]; Cryptococcus gattii, C. gattii isolate 23): > 100 µM
- MFC ([5]; Cryptococcus gattii, C. gattii isolate 25): 100 µM (≈ 21 µg/mL)
- MFC ([5]; Cryptococcus gattii, C. gattii isolate 27): > 100 µM
- MFC [5, 22]: ≥ 100 µM
- MIC [5, 22]: 12.5 µM (≈ 2.63 µg/mL)
- Larval survival ([6]; 125–1000 µM, 10 µL/larva, 37 °C): 100%

Molecule: {[Mn(3,6,9-trioxoundecanedioic acid)(1,10-phenanthroline)2]·3H2O·EtOH}n
- RNA levels encoding transferrin and inducible metalloproteinase inhibitor protein (IMPI) (G. mellonella): increased

Molecule: O.O.O.O.O=C([O-])c1cccc(C(=O)[O-])c1.O=C([O-])c1cccc(C(=O)[O-])c1.[Mn+2].[Mn+2].c1cnc2c(c1)ccc1cccnc12.c1cnc2c(c1)ccc1cccnc12.c1cnc2c(c1)ccc1cccnc12 [[Mn2(isophthalic acid)2(1,10-phenanthroline)3]·4H2O]
- RNA levels encoding transferrin and inducible metalloproteinase inhibitor protein (IMPI) (G. mellonella): increased

Molecule: O.O.O.O.O.O=C([O-])c1ccc(C(=O)[O-])cc1.[Mn+2].c1cnc2c(c1)ccc1cccnc12.c1cnc2c(c1)ccc1cccnc12 [[Mn(terephthalic acid)(1,10-phenanthroline)2]·5H2O]
- Gallerimycin expression (G. mellonella): upregulated
- RNA levels encoding transferrin and inducible metalloproteinase inhibitor protein (IMPI) (G. mellonella): increased

Molecule: Nc1[nH]c(=O)ncc1F [Flucytosine, flucytosine]
- MIC [1, 7]: 0.125 µg/mL
- MIC [1, 8]: 4 µg/mL
- MIC [1, 9]: 4 µg/mL
- MIC [1, 10]: 0.96 µM
- MIC [1, 11]: 30 µM
- MIC [1, 12]: 30 µM
- MIC [2, 13]: 4 µg/mL
- MIC [2, 14]: 64 µg/mL
- MIC [2, 15]: 16 µg/mL
- MIC [2, 16]: 30 µM
- MIC [2, 17]: 496 µM
- MIC [2, 18]: 124 µM
